Assay results reported in patent EP1561465A2, “Methods of use of fluoroquinolone compounds against bacteria” (LG Life Sciences, Ltd., priority 1999, dated 2001).
≈ marks a conversion by molar mass, not a printed value. Like-named read-outs stand apart in the source and are kept apart here.

Tests used:
Enterobacter aerogenes = assay: MIC by NCCLS broth microdilution, 1100 Japanese clinical isolates 1997-1998; type: cell-based; conditions: Enterobacter aerogenes (n=35)
Enterobacter cloacae = assay: as above; type: cell-based; conditions: Enterobacter cloacae (n=40)
Staphylococcus aureus = assay: microbe, parasite or virus in culture; type: cell-based; conditions: Staphylococcus aureus
Morganella morganii = assay: MIC by NCCLS broth microdilution, 1100 Japanese clinical isolates 1997-1998; type: cell-based; conditions: Morganella morganii (n=40)
Salmonella spp. [1] = assay: as above; type: cell-based; conditions: Salmonella spp. (n=29)
Shigella spp. = assay: MIC by agar dilution (NCCLS M7-A4), 288 enteropathogenic isolates, gemifloxacin and 15 other antimicrobials; type: cell-based; conditions: Shigella spp. N= 21
In short: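 Agar dilution with ~10^4 cfu/spot inoculum; plates incubated aerobically at 35 °C for 24 h, except C. jejuni, held microaerophilically for 48 h. MIC taken as lowest antibiotic concentration with no visible growth.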

Aeromonas spp. = assay: MIC by agar dilution (NCCLS M7-A4), 288 enteropathogenic isolates, eight quinolones; type: cell-based; conditions: Aeromonas spp. (n = 16)
Hafnia alvei = assay: MIC by agar dilution (NCCLS M7-A4), 288 enteropathogenic isolates, gemifloxacin and 15 other antimicrobials; type: cell-based; conditions: Hafnia alvei N= 32
Enterococcus faecalis [2] = assay: MIC by agar dilution (NCCLS), 411 isolates Buenos Aires 1998-99; type: cell-based; conditions: Enterococcus faecalis (n = 48)
Campylobacter jejuni [3] = assay: MIC by agar dilution (NCCLS M7-A4), 288 enteropathogenic isolates, gemifloxacin and 15 other antimicrobials; conditions: for MIC: Campylobacter jejuni
Escherichia coli = assay: MIC by agar dilution (NCCLS), 322 nosocomial Gram negative isolates, Athens 1998; type: cell-based; conditions: Escherichia coli; n = 57 isolates
Streptococcus pneumoniae [4] = assay: MIC by broth microdilution (NCCLS), dried MicroScan panels, clinical isolates 1998-1999; type: cell-based; conditions: for MIC90: Streptococcus pneumoniae
Salmonella spp. [5] = assay: MIC by agar dilution (NCCLS M7-A4), 288 enteropathogenic isolates, gemifloxacin and 15 other antimicrobials; type: cell-based; conditions: for MIC (mg/L) Range: Salmonella spp. N= 106
[6] = tested on: Mycobacterium tuberculosis (MTB); assay: MIC by proportions method (NCCLS M24-T, 1995), 82 MTB strains; type: cell-based; conditions: Mycobacterium tuberculosis; 82 MTB strains
Streptococcus pneumoniae [7] = assay: MIC by E-test (broth microdilution for gemifloxacin), 107 pneumococcal carrier isolates, Athens 1998; type: cell-based; conditions: E-test; for MIC Range: in µg/mL (unit assumed); for MIC50 / MIC90: Streptococcus pneumoniae; for MIC50: read-out: MIC50; for MIC90: read-out: MIC90
Experimental: Susceptibility testing was performed by agar dilution or epsilometer method (E-test), as recommended by the NCCLS. […] The susceptibility profiles of the strains were assessed using the Epsilometer method (E-test). The isolates were subdivided into two groups according to their penicillin susceptibility patterns (penicillin-susceptible and penicillin-intermediate.

Campylobacter jejuni [8] = assay: MIC by agar dilution (NCCLS M7-A4), 5% sheep blood, microaerophilic 48 h; type: cell-based; conditions: Campylobacter jejuni (n=91)
Enterococcus faecalis [9] = assay: MIC by agar macrodilution (NCCLS), 373 Gram positive isolates, Athens 1998; type: cell-based
[10] = 24 h, read-out: MIC (mg/L) Range
[11] = Streptococcus pneumoniae (302 isolates)
[12] = S. hadar(2), isolates with MICs for ciprofloxacin ≥[…], read-out: MIC
[13] = S. newport(1), isolate with MIC for ciprofloxacin ≥[…], read-out: MIC
[14] = Salmonella, S. tshiongwe(1), isolate with MIC for ciprofloxacin ≥[…], read-out: MIC
[15] = Salmonella, read-out: MIC (mg/L) 50%, Salmonella spp. N= 106
[16] = Salmonella, read-out: MIC (mg/L) 90%, Salmonella spp. N= 106
[17] = Penicillin-intermediate S. pneumoniae (n = 24)
[18] = Penicillin-susceptible S. pneumoniae (n = 107)

## NC1CCN(c2nc3c(cc2F)c(=O)c(C(=O)O)cn3-c2ccc(F)cc2F)C1 (centres unmarked) [Tosufloxacin, tosufloxacin]
Enterobacter aerogenes
  MIC Range: 0.016 to 0.125 µg/mL
Enterobacter aerogenes; Klebsiella aerogenes
  MIC50: 0.016 µg/mL (≈ 0.0396 µM)
  MIC90: 0.063 µg/mL (≈ 0.156 µM)
Enterobacter cloacae
  MIC50: 0.032 µg/mL (≈ 0.0791 µM)
  MIC90: 1 µg/mL (≈ 2.47 µM)
  MIC Range: ≤0.008 to 2 µg/mL
Staphylococcus aureus; S. aureus KU2240, mutant type Wild (wild strain)
  MIC: 0.063 µg/mL (≈ 0.156 µM)
Staphylococcus aureus; S. aureus KU2241, mutant type NorA (efflux-mediated quinolone resistant)
  MIC: 0.125 µg/mL (≈ 0.309 µM)
Staphylococcus aureus; S. aureus KU2242, mutant type T (DNA topoisomerase IV)
  MIC: 0.25 µg/mL (≈ 0.618 µM)
Staphylococcus aureus; S. aureus KU2243, mutant type G+T (DNA gyrase and topoisomerase IV)
  MIC: > 128 µg/mL
Staphylococcus aureus; S. aureus KU2244, mutant type G (DNA gyrase)
  MIC: 0.125 µg/mL (≈ 0.309 µM)
Staphylococcus aureus; S. aureus KU2246, mutant type T (DNA topoisomerase IV)
  MIC: 0.5 µg/mL (≈ 1.24 µM)
Morganella morganii
  MIC Range: 0.032 to 16 µg/mL
Morganella morganii; read-out: MIC50
  MIC50: 0.063 µg/mL (≈ 0.156 µM)
Morganella morganii; read-out: MIC90
  MIC90: 0.25 µg/mL (≈ 0.618 µM)
Salmonella spp. [1]
  MIC50: 0.032 µg/mL (≈ 0.0791 µM)
  MIC90: 0.063 µg/mL (≈ 0.156 µM)
  MIC Range: 0.016 to 0.063 µg/mL

## CC1COc2c(N3CCN(C)CC3)c(F)cc3c(=O)c(C(=O)O)cn1c23 (centres unmarked) [Ofloxacin, ofloxacin]
Shigella spp.; [10]
  MIC: 0.015 to 0.06 mg/L (≈ 0.0415 to 0.166 µM)
Shigella spp.; read-out: MIC (mg/L) 50%
  MIC: 0.03 mg/L (≈ 0.083 µM)
Shigella spp.; read-out: MIC (mg/L) 90%
  MIC: 0.06 mg/L (≈ 0.166 µM)
Aeromonas spp.
  % Susceptible: 100%
  MIC50: ≤ 0.015 µg/mL
  MIC90: 0.03 µg/mL (≈ 0.083 µM)
  MIC Range: ≤0.015 to 0.12 µg/mL
Hafnia alvei; [10]
  MIC: 0.03 mg/L (≈ 0.083 µM)
Hafnia alvei; read-out: MIC (mg/L) 50%
  MIC: 0.03 mg/L (≈ 0.083 µM)
Hafnia alvei; read-out: MIC (mg/L) 90%
  MIC: 0.03 mg/L (≈ 0.083 µM)
Enterococcus faecalis [2]
  MIC90: > 32 µg/mL
Campylobacter jejuni [3]; read-out: MIC (mg/L) 50%
  MIC: 16 mg/L (≈ 44.3 µM)
Campylobacter jejuni [3]; read-out: MIC (mg/L) 90%
  MIC: 32 mg/L (≈ 88.6 µM)
Escherichia coli
  MIC50: 0.06 µg/mL (≈ 0.166 µM)
  MIC90: 0.25 µg/mL (≈ 0.692 µM)
Streptococcus pneumoniae [4]; [11]
  MIC50: 2 µg/mL (≈ 5.53 µM)
  MIC Range: ≤0.06 to 4 µg/mL
  MIC90: 4 µg/mL (≈ 11.1 µM)
Streptococcus pneumoniae [4]; Erythromycin-resistant (86)
  MIC90: 2 µg/mL (≈ 5.53 µM)
Streptococcus pneumoniae [4]; Erythromycin-sensitive (216)
  MIC90: 4 µg/mL (≈ 11.1 µM)
Streptococcus pneumoniae [4]; Penicillin-intermediate (124)
  MIC90: 4 µg/mL (≈ 11.1 µM)
Streptococcus pneumoniae [4]; Penicillin-resistant (80)
  MIC90: 2 µg/mL (≈ 5.53 µM)
Streptococcus pneumoniae [4]; Penicillin-sensitive (98)
  MIC90: 2 µg/mL (≈ 5.53 µM)
Salmonella spp. [5]; [12]
  MIC: 2 mg/L (≈ 5.53 µM)
Salmonella spp. [5]; [13]
  MIC: 2 mg/L (≈ 5.53 µM)
Salmonella spp. [5]
  MIC (mg/L) Range: 0.06 to 2 mg/L
Salmonella spp. [5]; [14]
  MIC: 2 mg/L (≈ 5.53 µM)
Salmonella spp. [5]; [15]
  MIC: 0.12 mg/L (≈ 0.332 µM)
Salmonella spp. [5]; [16]
  MIC: 0.5 mg/L (≈ 1.38 µM)
[6]
  MIC90: 2 µg/mL (≈ 5.53 µM)
Streptococcus pneumoniae [7]; [17]
  MIC Range: 0.75-6
  MIC50: 2 µg/mL (≈ 5.53 µM)
  MIC90: 3 µg/mL (≈ 8.3 µM)
Streptococcus pneumoniae [7]; [18]
  MIC50: 2 µg/mL (≈ 5.53 µM)
  MIC90: 4 µg/mL (≈ 11.1 µM)
Campylobacter jejuni [8]
  % Susceptible: 31.86%
  MIC50: 16 µg/mL (≈ 44.3 µM)
  MIC90: 32 µg/mL (≈ 88.6 µM)

## Cc1c(F)c(N2CCNC(C)C2)cc2c1c(=O)c(C(=O)O)cn2C1CC1 (centres unmarked) [Grepafloxacin, grepafloxacin]
Shigella spp.; [10]
  MIC: 0.015 to 0.03 mg/L (≈ 0.0417 to 0.0835 µM)
Shigella spp.; read-out: MIC (mg/L) 50%
  MIC: ≤ 0.015 mg/L
Shigella spp.; read-out: MIC (mg/L) 90%
  MIC: 0.03 mg/L (≈ 0.0835 µM)
Aeromonas spp.
  % Susceptible: 100%
  MIC50: 0.03 µg/mL (≈ 0.0835 µM)
  MIC90: 0.06 µg/mL (≈ 0.167 µM)
  MIC Range: ≤0.015 to 0.12 µg/mL
Hafnia alvei; [10]
  MIC: 0.015 to 0.06 mg/L (≈ 0.0417 to 0.167 µM)
Hafnia alvei; read-out: MIC (mg/L) 50%
  MIC: 0.03 mg/L (≈ 0.0835 µM)
Hafnia alvei; read-out: MIC (mg/L) 90%
  MIC: 0.06 mg/L (≈ 0.167 µM)
Campylobacter jejuni [3]; Campylobacter jejuni N= 91
  MIC (mg/L) Range: 0.03 to 128 mg/L
Campylobacter jejuni [3]; read-out: MIC (mg/L) 50%
  MIC: 32 mg/L (≈ 89 µM)
Campylobacter jejuni [3]; read-out: MIC (mg/L) 90%
  MIC: 64 mg/L (≈ 178 µM)
Escherichia coli
  MIC50: 0.06 µg/mL (≈ 0.167 µM)
  MIC90: 0.25 µg/mL (≈ 0.696 µM)
Streptococcus pneumoniae [4]; [11]
  MIC50: 0.03 µg/mL (≈ 0.0835 µM)
  MIC Range: ≤0.015 to 0.25 µg/mL
  MIC90: 0.12 µg/mL (≈ 0.334 µM)
Streptococcus pneumoniae [4]; Erythromycin-resistant (86)
  MIC90: 0.12 µg/mL (≈ 0.334 µM)
Streptococcus pneumoniae [4]; Erythromycin-sensitive (216)
  MIC90: 0.25 µg/mL (≈ 0.696 µM)
Streptococcus pneumoniae [4]; Penicillin-intermediate (124)
  MIC90: 0.12 µg/mL (≈ 0.334 µM)
Streptococcus pneumoniae [4]; Penicillin-resistant (80)
  MIC90: 0.12 µg/mL (≈ 0.334 µM)
Streptococcus pneumoniae [4]; Penicillin-sensitive (98)
  MIC90: 0.12 µg/mL (≈ 0.334 µM)
Salmonella spp. [5]; [12]
  MIC: 1 mg/L (≈ 2.78 µM)
Salmonella spp. [5]; [13]
  MIC: 1 mg/L (≈ 2.78 µM)
Salmonella spp. [5]; S. virchow(2), isolates with MICs for ciprofloxacin ≥[…], read-out: MIC
  MIC: 0.25 mg/L (≈ 0.696 µM)
Salmonella spp. [5]; Salmonella spp.
  Rates of non-susceptible microorganisms: 1%
Salmonella spp. [5]
  MIC (mg/L) Range: 0.03 to 2 mg/L
Salmonella spp. [5]; [14]
  MIC: 2 mg/L (≈ 5.56 µM)
Salmonella spp. [5]; [15]
  MIC: 0.06 mg/L (≈ 0.167 µM)
Salmonella spp. [5]; [16]
  MIC: 0.25 mg/L (≈ 0.696 µM)
Salmonella spp. [5]; Salmonella, the non-susceptible Salmonella spp. isolate(s) (1% of 106), read-out: MIC
  MIC: 2 mg/L (≈ 5.56 µM)
[6]
  MIC90: 2 µg/mL (≈ 5.56 µM)
Streptococcus pneumoniae [7]; [17]
  MIC Range: 0.047-0.5
  MIC50: 0.19 µg/mL (≈ 0.529 µM)
  MIC90: 0.38 µg/mL (≈ 1.06 µM)
Streptococcus pneumoniae [7]; [18]
  MIC Range: 0.047-1
  MIC50: 0.19 µg/mL (≈ 0.529 µM)
  MIC90: 0.38 µg/mL (≈ 1.06 µM)
Campylobacter jejuni [8]
  % Susceptible: 31.86%
  MIC50: 32 µg/mL (≈ 89 µM)
  MIC90: 64 µg/mL (≈ 178 µM)
  MIC Range: 0.03 to 128 µg/mL
Enterococcus faecalis [9]
  MIC distribution (µg/ml) 0.03: 0
  MIC distribution (µg/ml) 0.06: 0
  MIC distribution (µg/ml) 0.125: 0
  MIC distribution (µg/ml) 0.25: 2
  MIC distribution (µg/ml) 1: 22
  MIC distribution (µg/ml) 2: 21
  MIC distribution (µg/ml) 4: 6
  MIC distribution (µg/ml) 8: 4
  MIC distribution (µg/ml) 16: 2
  MIC distribution (µg/ml) ≤0.015: 0
  MIC distribution (µg/ml) ≥32: 19
Enterococcus faecalis [9]; Enterococcus faecalis, n = 81 isolates, read-out: MIC50
  MIC50: 2 µg/mL (≈ 5.56 µM)
Enterococcus faecalis [9]; Enterococcus faecalis, n = 81 isolates, read-out: MIC90
  MIC90: ≥ 32 µg/mL
Enterococcus faecalis [9]; number of isolates at MIC 0.5 µg/ml, n = 81
  MIC distribution (µg/ml) 0.5: 5
